In patent publication US11352360B2, “TGF-beta inhibitors” (Rigel Pharmaceuticals, Inc., priority 2015, dated 2022):

How the values were obtained:
[1] = tested on: GDF8 signaling (p-SMAD-3 Ser423/425); assay: AlphaScreen SureFire SMAD3 (p-Ser423/425) assay, GDF8-stimulated; assay type: cell-based; settings: inhibition of GDF8 signaling, pSMAD, MPC11; read-out: GDF8 (GDF pSMAD (MPC11))
[2] = tested on: TGF-β signaling (p-SMAD-3 Ser423/425); assay: AlphaScreen SureFire SMAD3 (p-Ser423/425) assay, TGF-β-stimulated; assay type: cell-based; settings: inhibition of TGF-β signaling, pSMAD, MPC-11

IC50 [1]: 0.0256 µM
IC50 [2]: 0.16 µM
Compound: COc1ccc(-c2nc(N)sc2-c2ccc3[nH]ncc3c2)cc1 [Compound 157, 5-(1H-indazol-5-yl)-4-(4-methoxyphenyl)thiazol-2-amine]
